The numbers were not newly measured in patent US9877929B2, “Topical vitamin D and ubiquinol oral supplement compositions” (Premier Dental Products Company, priority 2011, dated 2018), which cites them from elsewhere.

The structures appear in SMILES notation.

The conditions of data set [1]: stable UBIQUINOL supplement.

Take `COc1c(O)c(C)c(C/C=C(\C)CC/C=C(\C)CC/C=C(\C)CC/C=C(\C)CC/C=C(\C)CC/C=C(\C)CC/C=C(\C)CC/C=C(\C)CC/C=C(\C)CCC=C(C)C)c(O)c1OC` [UBIQUINOL]: the water solubility result in data set [1] is listed as “less than 0.1 mg/ml”. In addition, the “time required to reach peak concentration” value (absorption from the gastrointestinal tract) is listed as “approximately 6 hours”. For the same molecule, the “time to steady-state concentrations” value (oral treatment) is on record as “two”. For the setting “orally, 150 mg per day of UBIQUINOL in a softgel, within 28 days”, the peak blood values was 3.84 µg/mL.
